# Columns and labels:
# TFEB = assay: High content screen measuring TFEB nuclear accumulation (TFEB nuclear/cytosol ratio) in BEAS-2B cells stably expressing TFEB-EGFP; type: cell-based, human; settings: 18 hours incubation
# Experimental: FIG. 3. High content screen assay (384 well) measuring TFEB nuclear accumulation. Approximately 2500 primary and immortalized human bronchial epithelial cells (BEAS-2B) stably expressing TFEB-EGFP in 25 μL of HITEs media with 10% FBS were dispensed into 384 well plate (Black with glass bottom) and incubated for 8 hours. Compound serial dilution (DMEM low glucose media with 2% FBS, 25 μL volume) were prepared using a robotic liquid hander. Compound solutions were then added to the cell plate and incubated for 18 hours. Cells were then fixed with 4% PFA followed by DAPI staining. TFEB localization was imaged on the GFP channel along with the DAPI signal using a Cytation 5 high content imager. Images were processed through Biotek Gen5 software; specifically, the DAPI signal was used as the primary mask to quantify the nuclear TFEB-GFP signal. The cytosolic TFEB-GFP signal was quantified through expanding the primary mask. The TFEB nuclear/cytosol ratios were calculated from nuclear TFEB-GFP signal/cytosol TFEB-GFP signal, which determined the compound efficacy. […] Compound activities (μM) were determined by the minimal compound concentration needed to increase TFEB nuclear/cytosol ratio by 25%. Activity: “−” equals >25 μM; “+” equals between 25 μM and >10 μM; “++” equals between ≤10 μM and >1 μM; and “+++” equals […]. N=4.
# (§1) Approximately 2300 primary and immortalized human bronchial epithelial cells (BEAS-2B) stably expressing TFEB-EGFP in 25 μL of HITEs media with 10% FBS were dispensed into 384 well plate (Black with glass bottom) and incubated for 8 hours. Compound serial dilution (DMEM low glucose media with 2% FBS, 25 μL volume) were prepared using a robotic liquid hander. Compound solution were then added to the cell plate and incubated for 18 hours. Cells were then fixed with 4% PFA followed by DAPI staining. TFEB localization was imaged on the GFP channel along with the DAPI signal using a Cytation 5 high content imager. Images were processed through Biotek Gen5 software. Specifically, the DAPI signal was used as the primary mask to quantify the nuclear TFEB-GFP signal. Cytosolic TFEB-GFP signal was quantified through expanding the primary mask. The TFEB nuclear/cytosol ratios were calculated from nuclear TFEB-GFP signal/cytosol TFEB-GFP signal, which determined the compound efficacies.
# Compounds efficacies (μM) were determined by the minimal compound concentration needed to increase TFEB nuclear/cytosol ratio by 25%. Activity: “+” equals >25 μM; “++” equals between ≤25 μM and >1 μM; and “+++” equals ≤1 μM.
# A high-content imaging screen was conducted using Beas2B cells that stably express GFP-TFEB.
# BEAS-2B cells = assay: Toxicity: compound concentration needed to induce greater than 50 percent of cell loss; type: cell-based, human; settings: 18 hours incubation
# Experimental: as §1
# Toxicity was determined by determining the compound concentration needed to induce greater than 50 percent of cell loss. For toxicity, cell loss of greater than 50 percent at a concentration that equals or is greater than 25 μM was represented as cell loss of greater than 50 percent at a concentration less than 25 μM and greater than 1 μM was represented as and cell loss of greater than 50 percent at a concentration that equals or is less than 1 μM was represented as “+++.” The assay results for compounds 1-202, 214-248, 332, 333, and 352-402 are shown in Table A.
Compound,efficacy (minimal compound concentration needed to increase TFEB nuclear/cytosol ratio by 25%) (TFEB),toxicity (compound concentration needed to induce greater than 50 percent of cell loss) (BEAS-2B cells)
NC1CCC(Nc2nc(-c3ccncc3)nc3ccccc23)CC1 (centres unmarked) [Compound 60],+ (“+” equals >25 μM),+ (cell loss of greater than 50 percent at a concentration that equals or is greater than 25 μM was represented as)
COc1ccc(-c2nc(Nc3ccc(C)c(F)c3)c3ccccc3n2)cc1 [Compound 163],+ (“+” equals >25 μM),+ (cell loss of greater than 50 percent at a concentration that equals or is greater than 25 μM was represented as)
Fc1cc(Nc2nc(-c3ccncc3)nc3ncccc23)cc2cc[nH]c12 [Compound 157],+++ (“+++” equals ≤1 μM),++ (cell loss of greater than 50 percent at a concentration less than 25 μM and greater than 1 μM was represented as)
c1cnc2ccc(Nc3nc(-c4ccncc4)nc4ccncc34)cc2c1 [Compound 127],++ (“++” equals between ≤25 μM and >1 μM),+ (cell loss of greater than 50 percent at a concentration that equals or is greater than 25 μM was represented as)
CCCc1nc2ccc(Nc3nc(-c4ccncc4)nc4ncccc34)cc2o1 [Compound 363],+++ (“+++” equals ≤1 μM),+ (cell loss of greater than 50 percent at a concentration that equals or is greater than 25 μM was represented as)
Cc1cccc2c(Nc3ccc4nc(C(C)C)sc4c3)nc(-c3ccncc3)nc12 [Compound 155],+++ (“+++” equals ≤1 μM),+ (cell loss of greater than 50 percent at a concentration that equals or is greater than 25 μM was represented as)
COc1ccc(-n2c(=O)c3ccc(C(=O)NCCc4ccccc4)cc3n(CC(=O)Nc3ccc(C)cc3)c2=O)cc1 [Compound 222],++ (“++” equals between ≤25 μM and >1 μM),++ (cell loss of greater than 50 percent at a concentration less than 25 μM and greater than 1 μM was represented as)
c1ccc2c(Nc3ccc4cn[nH]c4c3)nc(-c3ccncc3)nc2c1 [Compound 11],+++ (“+++” equals ≤1 μM),+ (cell loss of greater than 50 percent at a concentration that equals or is greater than 25 μM was represented as)
Fc1cc(Nc2nc(-c3ccncc3)cc3ncccc23)cc2sc(C3CC3)nc12 [Compound 246],+++ (“+++” equals ≤1 μM),+ (cell loss of greater than 50 percent at a concentration that equals or is greater than 25 μM was represented as)
N#Cc1cccc(Nc2nc(-c3ccncc3)nc3ccccc23)c1 [Compound 186],+++ (“+++” equals ≤1 μM),+ (cell loss of greater than 50 percent at a concentration that equals or is greater than 25 μM was represented as)
CCc1nc2ccc(Nc3nc(-c4ccncc4)nc4c(C)cccc34)cc2s1 [Compound 148],+++ (“+++” equals ≤1 μM),+ (cell loss of greater than 50 percent at a concentration that equals or is greater than 25 μM was represented as)
Cc1nc2ccc(Nc3nc(-c4ccncc4)nc4ccncc34)cc2o1 [Compound 140],+ (“+” equals >25 μM),+ (cell loss of greater than 50 percent at a concentration that equals or is greater than 25 μM was represented as)
Fc1cccc(CNc2nc(-c3ccncc3)nc3ccccc23)c1 [Compound 188],+ (“+” equals >25 μM),+ (cell loss of greater than 50 percent at a concentration that equals or is greater than 25 μM was represented as)
CCc1cc(F)cc(Nc2nc(-c3ccncc3)nc3ccccc23)c1 [Compound 21],+ (“+” equals >25 μM),+ (cell loss of greater than 50 percent at a concentration that equals or is greater than 25 μM was represented as)
c1cnc2nc(-c3ccncc3)nc(Nc3ccc4ncsc4c3)c2c1 [Compound 132],+++ (“+++” equals ≤1 μM),+ (cell loss of greater than 50 percent at a concentration that equals or is greater than 25 μM was represented as)
c1ccc2c(Nc3ccc4oncc4c3)nc(-c3cncs3)nc2c1 [Compound 394],+ (“+” equals >25 μM),+ (cell loss of greater than 50 percent at a concentration that equals or is greater than 25 μM was represented as)
CS(=O)(=O)CCCNc1nc(-c2ccncc2)nc2ccccc12 [Compound 172],+ (“+” equals >25 μM),+ (cell loss of greater than 50 percent at a concentration that equals or is greater than 25 μM was represented as)
CC(=O)Nc1ccc(Nc2nc(-c3ccncc3)cc3ncccc23)cc1O [Compound 401],+++ (“+++” equals ≤1 μM),+ (cell loss of greater than 50 percent at a concentration that equals or is greater than 25 μM was represented as)
Cc1cnccc1-c1nc(Nc2ccc3[nH]ncc3c2)c2ccccc2n1 [Compound 45],+ (“+” equals >25 μM),+ (cell loss of greater than 50 percent at a concentration that equals or is greater than 25 μM was represented as)
CCc1nc2ccc(Nc3nc(-c4ccncc4)nc4c(F)cccc34)cc2s1 [Compound 369],+ (“+” equals >25 μM),+ (cell loss of greater than 50 percent at a concentration that equals or is greater than 25 μM was represented as)
Cn1cnc2ccc(Nc3nc(-c4ccncc4)nc4ccccc34)cc21 [Compound 141],+++ (“+++” equals ≤1 μM),++ (cell loss of greater than 50 percent at a concentration less than 25 μM and greater than 1 μM was represented as)
Fc1cccc2c(Nc3ccc4[nH]ccc4c3)nc(-c3ccncc3)nc12 [Compound 108],+++ (“+++” equals ≤1 μM),+ (cell loss of greater than 50 percent at a concentration that equals or is greater than 25 μM was represented as)
c1cnc2nc(-c3cncs3)nc(Nc3ccc4[nH]ncc4c3)c2c1 [Compound 383],++ (“++” equals between ≤25 μM and >1 μM),+ (cell loss of greater than 50 percent at a concentration that equals or is greater than 25 μM was represented as)
COc1ccc(NC(=O)Cn2c(=O)n(-c3ccc(CC(=O)NCCc4ccccc4)cc3)c(=O)c3ccccc32)cc1 [Compound 221],+ (“+” equals >25 μM),+ (cell loss of greater than 50 percent at a concentration that equals or is greater than 25 μM was represented as)
Cc1nc2ccc(Nc3nc(-c4ccncc4)nc4ccccc34)cc2s1 [Compound 192],+++ (“+++” equals ≤1 μM),+ (cell loss of greater than 50 percent at a concentration that equals or is greater than 25 μM was represented as)

# Reference: patent US12286442B2, “Methods and materials for increasing transcription factor eb polypeptide levels” (University of Pittsburgh—Of the Commonwealth System of …, priority 2019, dated 2025)
